Patent US11414398B2, “Selective organic cation transporters inhibitors for the treatment of depressive disorders” (priority 2017, dated 2022)
Entries after “also recorded” stand apart in the source; their conditions may differ.

Tests used:
[1] = mouse, in vivo
Protocol: (§1) Corticosterone-induced depression. To induce a chronic depression-like state, individually housed mice were administered corticosterone ([…]; Sigma-Aldrich) dissolved in 0.45% (wt/vol) hydroxypropyl-b-cyclodextrin (Sigma-Aldrich) as in (Bacq et al., Mol. Psychiatry, 2012, 17, 926-939). […] The mice were tested successively for coat sate, sucrose consumption, elevated O-maze, object location test and social interaction, before antidepressant treatment, and after 10 days and 3 weeks of treatment. The experimental scheme is represented on FIG. 1A.
Blood parameter evaluation. Blood was collected in lithium heparin after the 3 weeks of treatment. Hemograms were performed with a Siemens ADVIAZ 120 apparatus. For biochemistry, blood was centrifuged at 2000 g for 10 min at +4° C. and supernatant was analyzed with a COBAS 6000 (Roche) apparatus.

[2] = Effect on weight, corticosterone-induced depression; format: in vivo, mice; settings: weight measured daily; I-1 0.1 mg/kg/day, fluoxetine 15 mg/kg/day or both, i.p.
Protocol: Corticosterone-induced depression. […] The experimental scheme is represented on FIG. 1A. Effect on weight. The weight of tested mice was measured daily in the morning (FIG. 2D).

social defeat model = test: Social defeat model, social interaction test; format: in vivo, mice; settings: after 3 weeks of treatment; fluoxetine 17 mg/kg, compound (I-1) 0.1 mg/kg as printed
Protocol: (§2) Social defeat model. For social defeat, 8-week-old C57Bl/6J mice were submitted to social defeat stress for 10 consecutive days as described (Berton et al., Science, 2006, 311(5762), 864-8). […] The experimental scheme is represented on FIG. 1H. Social interaction test. The social interaction test was performed in a white open-field (42×42 cm) containing an empty wire mesh cage (10×6.5 cm) located at an extremity of the field in a low luminosity environment (25 lux). Each test mouse was allowed to explore the openfield for two consecutive sessions of 2.5 min. During the second session, an unfamiliar mouse was introduced into the cage. Between the two sessions, the test mouse was placed back into its home cage for approximately one minute. The time spent by the test mouse in the interaction zone, defined as an 8-cm-wide region surrounding the mesh cage, was measured in both sessions by video tracking (Viewpoint, Lyon, France) (FIGS. 1G and 1I).

[3] = system: corticosterone-induced depression model; test: Open-field test, corticosterone-induced depression; format: in vivo, mice
Protocol: as §1
Open-field test. The open field consisted of a white Plexiglas field (100×100×30 cm) with the center brightly illuminated (500 lux). General locomotor activity in the center and periphery of the open field were scored for 9 min. The time and number of entries in the center zone (60×60 cm) were evaluated as an index of anxiety-related response (FIG. 2B).

[4] = system: corticosterone-induced depression model; test: Sucrose preference test, corticosterone-induced depression; format: in vivo, mice; settings: i.p. daily: I-1 0.1 mg/kg/day, fluoxetine 15 mg/kg/day or both
Protocol: Corticosterone-induced depression. […] The experimental scheme is represented on FIG. 1A. Sucrose preference test. Singled-house mice were first habituated for 48 h to drink water from two bottles.

[5] = system: corticosterone-induced depression model; test: Social interaction test, corticosterone-induced depression; format: in vivo, mice; settings: 21 days of treatment; compared to corticosterone
Protocol: as §2, with “Corticosterone-induced depression.” for “Social defeat model. For social defeat, 8-week-old C57Bl/6J mice were submitted to social defeat stress for 10 consecutive days as described (Berton et al., Science, 2006, 311(5762), 864-8).”, “1A.” for “1H.”

[6] = system: autophagy and proteasome pathways in the brain; test: Toxicity: cell death pathways in the brain, Western blots; settings: mouse, in vivo
Protocol: as §1
Cell death pathways in the brain—Western blots. […] Samples were homogenized by sonication in 2 vol of ice-cold phosphate-buffered saline containing 1% Triton X-100, protease inhibitors (Complete Protease Inhibitor Cocktail, Roche Diagnostics, Basel, Switzerland) and phosphatase inhibitors (Phosphatase Inhibitor Cocktail 3; Sigma-Aldrich). Protein concentrations were determined by Bradford's method. Proteins samples (15 μg) suspended in NuPage LDS sample buffer (Invitrogen, Carlsbad, Calif., USA) were separated by Bis-Tris sodium dodecyl sulfate polyacrylamide gel electrophoresis (10% gels) and transferred onto nitrocellulose membranes (Invitrogen). Transfer efficacy was controlled by Ponceau S staining. Unspecific binding sites were blocked in Tris-buffered saline containing 0.1% Tween-20 and 5% nonfat milk and membranes were immunoprobed with antibodies against β-actin ( 1/2500) and β-catenin ( 1/300) from Sigma-Aldrich or LC3B ( 1/5000) from Abcam. Membranes were incubated with infrared-labeled secondary antibodies (IRDye 700DX and IRDye 800CW; 1/5000; Rockland, Gilbertsvillle, Pa., USA). Immunoblotting was quantified with the Odyssey Infrared Imaging System and Application Software version 3.0 (LI-COR Biosciences, Lincoln, Nebr., USA).

[7] = Forced swim test, acute administration; format: in vivo
[8] = Metabolic conversion in microsomal fraction; format: in vitro ADME; settings: 100 μM, rat liver microsomes 1 mg protein/mL, NADPH generating system, 37° C.
Protocol: Method. […] The reactions were stopped by adding one-half volume of CH3CN containing 8% CH3COOH and the proteins were removed by centrifugation at 13000 g. […] B=CH3CN/HCOOH (999:1)) at 200 μL/min. Mass spectra were obtained by electrospray ionization (ESI) in positive ionization mode detection under the following conditions: source parameters, […], 15; auxiliary gas, 5; spray voltage, 3.2 kV; capillary temperature, 275° C.; and m/z range for MS recorded generally between 150 and 900. For all products, the indicated parent ions corresponded to [M+H]^+.

[9] = system: corticosterone-induced depression model; test: Coat state, corticosterone-induced depression; format: in vivo, mice; settings: both time points; i.p. daily: I-1 0.1 mg/kg/day, fluoxetine 15 mg/kg/day or both
Protocol: Corticosterone-induced depression. […] The experimental scheme is represented on FIG. 1A. Coat state. The coat state of each animal was assessed weekly as a measure of motivation toward self-care. It was evaluated as the sum of the score of different parts of the body, ranging between 0 for a well-groomed coat and 1 for an unkempt coat for head, neck, dorsal/ventral coat, tail and forepaws/hindpaws (FIG. 1B).

[10] = system: corticosterone-induced depression model; test: Elevated O-maze test, corticosterone-induced depression; format: in vivo, mice; settings: after 21 days; i.p. daily: I-1 0.1 mg/kg/day, fluoxetine 15 mg/kg/day or both
Protocol: Corticosterone-induced depression. […] The experimental scheme is represented on FIG. 1A. Elevated O-maze test. The elevated O-maze consisted of an annular runway positioned 40 cm above the floor and divided into two opposing 90° closed sectors and two 90° open sectors. The mice were individually placed in the closed sector and their behavior recorded over a 5-min period. The time spent in each sector and the number of sector entries (a sector entry was defined as all four of the paws being placed in a sector) were determined by video tracking (Viewpoint, Lyon, France) (FIGS. 1D and 1E).

[11] = Acute administration: locomotor activity and anxiety level; format: in vivo
[12] = compared to fluoxetine-treated and fluoxetine plus compound (I-1) treated groups

Work on `COc1ccc2c(c1)CC/C(=C/c1cc[n+](C(C)C)c3ccccc13)N2C(C)C` [Compound I-1, (Z)-1-isopropyl-4-((1-isopropyl-6-methoxy-3,4-dihydroquinolin-2(1H)-ylidene)methyl)quinolin-1-ium Iodide] yielded an ALP [1] of 53.3 ± 2.2 U/L, an ALT [1] of 49.5 ± 4.2 U/L and an AST [1] of 164.8 ± 6.2 U/L. For the same molecule, the Creatinine [1] was 0.43 ± 0.06 mg/dL, the Hematies [1] was 8.96 ± 0.5 T/L and the Leucocytes [1] was 2.89 ± 0.4 g/L. It also gave a Platelets [1] of 254.1 ± 56.5, a Total bilirubin [1] of 0.12 ± 0.01 mg/dL and a Urea [1] of 61.7 ± 1.9 mg/dL. For the same molecule, the “hepatotoxicity compared with fluoxetine” value [1] was “less hepatotoxicity”, the effect on weight [2] was “no significant effect; also recorded: did not decrease weight” and the “reversal of social aversion (time in interaction zone with target)” value (social defeat model) was “not by compound (I-1)”. The “locomotor activity at the periphery of the open field” value ([3]; compared to corticosterone, I-1 0.1 mg/kg/day, fluoxetine 15 mg/kg/day or both, i.p.) was “significant effect; also recorded: restored normal locomotor activity”, the “locomotor activity in the center of the open field” value [3, 12] was “significant increase” and the “time in the center of the open field” value [3, 12] was “significant increase”. The sucrose preference ([4]; 11 days of treatment) was “significantly increased sucrose preference at 11 days”, the sucrose preference ([4]; 21 days of treatment) was “significantly increased sucrose preference at 21 days” and the “interaction time in social interaction test” value [5] was “significant effects on interaction time”. The LC3II/LC3I ratios [6] was “comparable LC3II/LC3I ratios”, the “autophagy and proteasome pathways in the brain” value [6] was “does not alter autophagy and proteasome pathways in the brain” and the β-catenin levels [6] was “comparable”. For the same molecule, the “immobility time in the forced swim test” value [7] was “moderate but reproducible lowering (antidepressant-like) action”, the “metabolisation on incubation with microsomes” value [8] was “led to the metabolisation” and the coat state [9] was “improved coat state at both time points”. The “latency to enter the open zone of the elevated O-maze” value [10] was “decreased the latency to enter this zone”, the “time in the open zone of the elevated O-maze” value [10] was “increased the time in the open zone” and the anxiety level [11] was “no effect”. The locomotor activity [11] was “no effect”.
